US20240247048A1 (EMORY UNIVERSITY, priority 2021, published 2024)

System: human T cells
Assay: activation of healthy-donor human T cells (anti-CD3), marker expression by flow cytometry
Type: cell-based
Conditions: 24 h post activation, 3 uM, vs scrambled peptide; FIG. 17d
Protocol: Mean value from ‘Activated’ group shown with dotted line (---) for comparison. Responses from same healthy donors are shown with same color dots. Error bars are computed as the standard error of the mean (SEM) from 6 healthy donor samples.
This study adopted an ex-vivo system using human T cells isolated from healthy donors to screen for novel VIP-R antagonist peptides. Human T cells were cultured over 6 or 24 hours with activation in the presence or absence of peptides and were assessed for percent CD69 surface expression by flow cytometry to measure the state of T cell activation. The activity of the peptides was determined by percent increase in CD69 expression relative to no peptide control. […] We also observed that amongst the donors, most were classified as average responders, with measured value for CD69 expression within the error bars while two others had measured values outside the error bars, one sample reflecting a super-responder (purple dots) and one sample reflecting a slow-responder (green dots) (FIGS. 10A and 10B). […]
Human T cell activation and expansion. […] Cells were counted using Trypan blue dye and phenotyped via flow cytometry on day 9. […]

KPRRPYTSDYTRLRKQMAVKKYLNLILN [ANT308]
CD69 expression in CD4 and CD8 human T cells: significantly increased
